# Results from article PMC9145865, “Effects of Rare Phytocannabinoids on the Endocannabinoid System of Human Keratinocytes” (International Journal of Molecular Sciences, 2022).
# Legend:
# [1] = test system: DAGLβ; test: Western blot protein expression of DAGLβ; assay type: cell-based, human; details: HaCaT cells, half-IC50 dose, 24 h, vs. control
# Description: The HaCaT cells were seeded into 6-well plates at a density of 4 × 10^4 per well, incubated overnight and then treated with the selected pCBs (6.0 µM of CBG, 4.0 µM of CBC, 9.0 µM of THCV and 13.0 µM of CBGA) for 24 h. The cell pellets were collected and then lysed in an ice-cold lysis buffer (10 mM of EDTA, 50 mM of pH 7.4 Tris–HCl, 150 mM of sodium chloride, 1% Triton-X-100, 2 mM of phenylmethylsulfonyl fluoride, 2 mM of sodium orthovanadate, […] of leupeptin and […] of aprotinin). The amount of protein was determined using the Bio-Rad Protein assay (Bio-Rad Laboratories, Hemel Hempstead, UK). An equal amount of protein (60 µg) was loaded onto 10% sodium dodecyl sulfate–polyacrylamide gels and blotted onto polyvinylidene fluoride sheets (Amersham Biosciences, Piscataway, NJ, USA). The membranes were blocked with dried 5% non-fat milk for 1 h and then incubated with suitable primary antibodies. Detection was performed using Azure Biosystems c400 (Dublin, CA, USA). The membranes were stripped using the Restore Western Blot Stripping Buffer from Thermo Fisher Scientific (Waltham, MA, USA) for 30 min under agitation at room temperature, according to the manufacturer’s instructions. The primary antibodies (Table 6) that were used were obtained from the following sources: […]
# [2] = test system: CB1; details: in vivo and in vitro; ref [53]; cited from earlier work
# [3] = test system: FAAH; test: qRT-PCR gene expression of FAAH; assay type: cell-based, human; details: HaCaT cells, half-IC50 dose, 24 h, vs. control
# Description: (§1) The HaCaT cells were seeded into 6-well plates at a density of 4 × 10^4 per well, incubated overnight and then treated with the selected pCBs (CBG (6.0 µM), CBC (4.0 µM), THCV (9.0 µM) and CBGA (13.0 µM)) for 24 h. The cell pellets were collected and RT-PCR reactions were performed using the RevertAid H Minus First Strand cDNA Synthesis Kit. The relative abundance was assessed via RT quantitative PCR (RT-qPCR) using the SensiFAST SYBR Lo-ROX Kit in an Applied Biosystems 7500 Fast Real-Time PCR System (Life Technologies). To provide the precise quantification of the initial target in each PCR reaction, the amplification plot was examined, as well as the point of early log phase of the product accumulation, which was defined by assigning a fluorescence threshold above the background that was defined as the threshold cycle number or “Ct. Differences” in threshold cycle number that was used to quantify the relative amount of the PCR targets that were contained within each tube. After PCR, a dissociation curve (melting curve) was constructed in the range of 60 °C to 95 °C [62] to evaluate the specificity of the amplification products. The relative expression of the different amplicons was calculated using the delta–delta Ct (ΔΔCt) method and then converted into the relative expression ratio (2^−ΔΔCt) for statistical analysis. […]
# [4] = test system: NAPE-PLD; test: NAPE-PLD activity assay in homogenates of treated cells; assay type: cell-based, human; details: HaCaT cells, half-IC50 amount, 24 h, vs. control
# Description: NAPE-PLD: The HaCaT cells were seeded into 6-well plates at a density of 4 × 10^4 per well, incubated overnight and then treated with the selected pCBs (6.0 µM of CBG, 4.0 µM of CBC, 9.0 µM of THCV and 13.0 µM of CBGA) for 24 h. The cell pellets were collected and NAPE-PLD activity was determined in the homogenates of the cells after 24 h of treatment with each pCB. Then, the homogenates were incubated in a reaction mixture that contained 50 mM of Tris–HCl, 0.05% Triton X-100 pH 8.0 and 10 µM of fluorogenic substrate PED6 (N-((6-(2,4-Dinitrophenyl)amino)hexanoyl)-2(4,4-Difluoro-5,7-Dimethyl-4-Bora-3a,4a-Diaza-s-Indacene-3-Pentanoyl)-1-Hexadecanoyl-sn-Glycero-3 Phosphoethanolamine, Triethylammonium Salt). The homogenates were pre-incubated with the specific NAPE-PLD inhibitor ARN19874 at 3.8 mM [65] (Cayman Chemical, Ann Arbor, MI, USA) for 30 min at room temperature in order to fully erase the enzyme activity as a control. Fluorescence values were measured with excitation at λ = 485–488 nm and emission at λ = 530 nm at 37 °C by means of continuity kinetics at 30-sec intervals for 30 min in an Enspire multimode plate reader (Perkin Elmer, Waltham, MA, USA), as reported in [66]. NAPE-PLD activity was expressed as florescence intensity (arbitrary units, AU) per min per mg of protein.
# [5] = test system: NAPE-PLD; test: qRT-PCR gene expression of NAPE-PLD; assay type: cell-based, human; details: HaCaT cells, half-IC50 dose, 24 h, vs. control
# Description: as §1
# [6] = test system: PEA; test: Endogenous PEA content by UHPLC-MS/MS; assay type: cell-based, human; details: HaCaT cells, half-IC50 dose, 24 h, vs. control
# Description: The HaCaT cells were seeded into 6-well plates at a density of 4 × 10^4 per well, incubated overnight and then treated with the selected pCBs (6.0 µM of CBG, 4.0 µM of CBC, 9.0 µM of THCV and 13.0 µM of CBGA) for 24 h. The analytical standards that were used were N-arachidonoylethanolamine (AEA), N-arachidonoylethanolamine-d8 (AEA-d8), 2-arachidonoylglicerol (2-AG), 2-arachidonoylglicerol-d8 (2-AG-d8), N-palmitoylethanolamine (PEA) and […] (PEA-d4). The lipid fraction from these cells was extracted using chloroform–methanol–water (2:1:1 v/v) in the presence of ISs (1 ng/mL^−1 of AEA-d8, 100 ng mL^−1 of 2-AG-d8 and 1 ng mL^−1 of PEA-d4). The organic phase was dried under gentle nitrogen stream and then subjected to a micro-solid phase extraction (µSPE) procedure for a rapid clean-up using OMIX C18 tips from Agilent Technologies (Santa Clara, CA, USA). All analyses were performed using a Nexera XR LC 20 AD UHPLC system (Shimadzu Scientific Instruments, USA) that was equipped with Kinetex XB-C18 1.7 µm 100 × 2.1 mm from Phenomenex (Torrance, CA, USA) (for the LC parameters, see Figure S5) and coupled with a 4500 Qtrap from Sciex (Toronto, ON, Canada) that was equipped with a Turbo V electrospray ionization (ESI) source (the MS/MS parameters are shown in Table S1). The levels of AEA, 2-AG and PEA were then calculated as pmoles per 10^6 cells, as reported in [60].
# [7] = test system: transformed human keratinocytes; parameters: method as in PMID 17157480; details: hyperproliferative conditions; ref [46]; cited from earlier work
# [8] = test system: skin; parameters: method as in PMID 35056807; details: applied topically; ref [59]; cited from earlier work
smiles,measurement,setting,value
"CCCc1cc(O)c2c(c1)OC(C)(C)[C@@H]1CCC(C)=C[C@@H]21 [THCV, Δ^9-tetrahydrocannabivarin]",DAGLβ protein expression (in words),[1],significantly reduced
same,Protein Expression DAGLβ,[1],↓+++
same,activity at CB1,[2],CB1 antagonist
"CCCCCc1cc(O)c(C/C=C(\C)CCC=C(C)C)c(O)c1C(=O)O [CBGA, cannabigerolic acid]",Gene Expression FAAH,[3],FAAH ↓+++
same,gene expression of FAAH (in words),[3],significantly reduced
same,activity of NAPE-PLD,[4],significantly increased
"CCCCCc1cc(O)c2c(c1)OC(C)(CCC=C(C)C)C=C2 (stereo not shown) [CBC, cannabichromene]",gene expression of NAPE-PLD (in words),[5],significantly increased
"CCCCCc1cc(O)c(C/C=C(\C)CCC=C(C)C)c(O)c1 [CBG, cannabigerol]",endogenous PEA content,[6],markedly increased
same,proliferation of transformed human keratinocytes,[7],inhibit the proliferation
same,skin health after topical application,[8],reducing the appearance of redness and improving barrier function
